Source: patent publication US9770421B2, “Uses for idebenone and related benzoquinones in metabolic disorders and other PPAR α/γ related diseases and conditions” (INDANIO BIOSCIENCE INC., priority 2013, dated 2017)
“Also recorded” adds a separate entry of the source.

Key:
[1] = target: T1, hPPARγ (Homo sapiens, UniProt P37231); assay: HEK293 cell culture luciferase reporter assay, hPPARγ
T1 sequence (P37231 188-477 isoform P37231-2): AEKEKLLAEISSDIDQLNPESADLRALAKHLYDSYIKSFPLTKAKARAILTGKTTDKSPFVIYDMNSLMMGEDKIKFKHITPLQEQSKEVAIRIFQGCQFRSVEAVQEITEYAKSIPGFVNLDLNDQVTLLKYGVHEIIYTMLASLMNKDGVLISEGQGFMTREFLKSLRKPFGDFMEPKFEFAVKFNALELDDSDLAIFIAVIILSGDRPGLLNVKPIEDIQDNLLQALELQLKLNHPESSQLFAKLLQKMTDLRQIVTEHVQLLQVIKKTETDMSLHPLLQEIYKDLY

[2] = target: T2, PPARα LBD (Homo sapiens, UniProt Q07869); assay: In vitro co-purification with His-tagged PPARα LBD, MS; assay type: binding; conditions: incubated with 10 μM idebenone
T2 construct: His-tagged PPARα, δ and γ LBDs were expressed in bacteria, Ni-NTA purified; His; made in house; host or cells: bacteria (E. coli)
T2 sequence (Q07869 239-466 limits assumed): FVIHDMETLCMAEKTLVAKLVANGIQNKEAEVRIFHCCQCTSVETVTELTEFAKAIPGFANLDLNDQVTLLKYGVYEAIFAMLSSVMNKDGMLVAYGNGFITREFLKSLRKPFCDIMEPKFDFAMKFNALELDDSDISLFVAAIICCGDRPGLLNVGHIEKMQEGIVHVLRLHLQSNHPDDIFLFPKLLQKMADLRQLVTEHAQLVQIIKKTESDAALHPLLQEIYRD
Description: To see if idebenone can bind to directly to other PPAR LBDs, His-tagged PPARα, δ and γ LBDs were expressed in bacteria, Ni-NTA purified and incubated with 10 μM idebenone. After several washes in a 10 kDa cut off Amicon centrifuge filter (Millipore), lipids were extracted and analyzed by MS.

[3] = target: T3, PPARδ/β (Homo sapiens, UniProt Q03181); assay: PPARδ/β ligand trap transgenic zebrafish line; conditions: in vivo
T3 construct: expressed in transfected cells; host or cells: transgenic zebrafish embryos (ligand-trap line)
T3 sequence (Q03181 211-439 limits assumed): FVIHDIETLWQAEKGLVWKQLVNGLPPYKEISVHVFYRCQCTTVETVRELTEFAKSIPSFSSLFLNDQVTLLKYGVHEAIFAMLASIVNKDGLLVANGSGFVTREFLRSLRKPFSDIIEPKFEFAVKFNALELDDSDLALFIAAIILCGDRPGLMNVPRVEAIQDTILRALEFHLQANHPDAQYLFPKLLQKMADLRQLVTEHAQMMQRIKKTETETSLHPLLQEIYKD
Description: To test for specificity, idebenone and CoQ10 were also tested on PPARα, and PPARδ/β receptors in vivo and in vitro. […] The same relative responses were obtained with HEK 293 cells grown in culture and transfected with PPAR expression vectors and luciferase reporters (FIG. 5).

[4] = target: T4, PPARα (Homo sapiens, UniProt Q07869); assay: HEK293 cell culture luciferase reporter assay, hPPARα
T4 sequence (Q07869 178-468): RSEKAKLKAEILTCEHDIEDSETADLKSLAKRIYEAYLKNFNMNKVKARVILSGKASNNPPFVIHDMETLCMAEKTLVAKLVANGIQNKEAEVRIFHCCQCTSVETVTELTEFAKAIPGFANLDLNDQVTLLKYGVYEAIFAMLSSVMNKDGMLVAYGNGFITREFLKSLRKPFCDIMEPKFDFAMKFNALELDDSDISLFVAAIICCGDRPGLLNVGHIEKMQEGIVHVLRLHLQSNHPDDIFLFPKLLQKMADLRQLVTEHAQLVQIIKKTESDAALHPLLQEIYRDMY

[5] = target: T1, hPPARγ; assay: PPARγ ligand trap (LT) zebrafish GFP reporter screen/assay; assay type: in vivo; set-up: pLT PPARα (aa 178-468) and pLT PPAR γ (aa 188-477) lines; expressed in transfected cells; host or cells: transgenic zebrafish embryos (heat-induced ligand-trap line); conditions: for GFP reporter activation in LT-PPARγ embryos: transgenic embryos, 48 hpf images
Description: Digested DNA was adjusted with 0.1% phenol red. 4.6 nl of DNA solution was injected into the blastomeres of early one-cell stage embryos.
F0 fish were crossed with WT fish to identify germ-line transformed animals, as determined by agonist treatments and GFP expression. F1 progeny showing strong and consistent GFP responses were selected for F2 homozygote production. To avoid reporter GFP silencing of stable transgenic LT lines, homozygous fish showing strong and consistent GFP responses were selected for continued propagation of next generations.
PPARγ ligand trap zebrafish screens were performed under optimized conditions in 96-well format using the ImageXpress Velos Laser Scanning Cytometer. 1 or 2 dpf embryos were heat induced (28→37° C.) for 30 minutes, de-chorionated and then arrayed in 96-well plates (5 per well). Embryo water (0.075 g/L NaHCO3, 0.018 g/L Sea salt, 0.0084 g/L CaSO42H2O) was removed and 200 μl of fresh embryo water/well including dissolved small molecules or solvent was added.
Also included was the CoQ10 analog idebenone.

[6] = test system: 3T3-L1 cells; assay: Murine 3T3-L1 adipocyte differentiation assay (Oil Red O); assay type: cell-based; conditions: with dexamethasone, isobutylmethylxanthine and insulin; Oil Red O staining
Description: The cell line was originally obtained from ATCC and 3T3-L1 cells were maintained in the fibroblasts stage in DMEM (Gibco: 11995-065), 10% FBS (Gibco: 26140-079) and Pen-Strep solution (Gibco: 15140-122). Cells were grown in 75 cm^2 flasks and sub-cultured just prior to confluence. Medium was removed and washed twice with PBS. For cell differentiation 2 day post-confluent monolayers were incubated for 2 days in DMEM containing: 10% fetal bovine serum (FBS), 100 μg/ml IBMX (from a 500× stock in 0.15 M KOH, prepared fresh), 390 ng/ml dexamethasone (from a 1000× stock in EtOH) and 5 μg/ml insulin (from a 1000× stock in 0.1 M HCl). After 2 days media was replaced with DMEM+ 10% FBS and 5 μg insulin only and cells were maintained for another 2 days. Media was then replaced by DMEM+ 10% FBS for 5-6 days until differentiation was complete. After differentiation media was removed and cells were washed twice with PBS and then fixed in 4% PFA. Lipids were stained with Oil O red.

COC1=C(OC)C(=O)C(CCCCCCCCCCO)=C(C)C1=O [Idebenone, 2-(10-hydroxydecyl)-5,6-dimethoxy-3-methyl-2,5-cyclohexadiene-1,4-dione]
EC50 [1]: 2.5 µM
Maximum activation level versus full agonist, PPARγ ([1]; HEK293, full agonist rosiglitazone): significantly lower than those obtained using the full agonists
Binding to PPARα LBD (co-purification, MS) [2]: strong binding
Response of PPARδ/β transgenic line [3]: no response
EC50 [4]: 3 µM
Maximum activation level versus full agonist, PPARα ([4]; HEK293, full agonist GW7647): significantly lower than those obtained using the full agonists
Hit activating the PPARγ ligand trap reporter fish line ([5]; Enzo FDA approved drug library, screened at 1, 3 and 10 μM): hits
Concentration yielding maximal activation in fish reporter system ([5]; in vivo): ≥ 4 µM
GFP reporter activation in LT-PPARγ embryos [5]: more limited GFP expression in cells of the blood, epidermis and CNS
GFP reporter activation in LT-PPARγ embryos ([5]; listed as idebenone): weaker and less widespread than responses to rosiglitazone or pioglitazone; also recorded: dual agonists for PPARα and PPARγ
EC50 ([5]; zebrafish ligand trap, read-out: EC50 in fish): 2 µM
Lipid accumulation / adipocyte differentiation [6]: does not stimulate adipocyte differentiation and activity; also recorded: no accumulation of lipid
